From US5342947A, “Preparation of water soluble camptothecin derivatives” (Glaxo Inc., priority 1992, dated 1994)
Like-named read-outs stand apart in the source and are kept apart here. One block for each compound: values may come before it.

Legend:
topoisomerase Type I = target: T1, topoisomerase Type I (Bos taurus, UniProt F1MN93); assay: Cleavable Complex in vitro Assay (topoisomerase Type I inhibitory activity); format: biochemical
T1 sequence (F1MN93 1-767): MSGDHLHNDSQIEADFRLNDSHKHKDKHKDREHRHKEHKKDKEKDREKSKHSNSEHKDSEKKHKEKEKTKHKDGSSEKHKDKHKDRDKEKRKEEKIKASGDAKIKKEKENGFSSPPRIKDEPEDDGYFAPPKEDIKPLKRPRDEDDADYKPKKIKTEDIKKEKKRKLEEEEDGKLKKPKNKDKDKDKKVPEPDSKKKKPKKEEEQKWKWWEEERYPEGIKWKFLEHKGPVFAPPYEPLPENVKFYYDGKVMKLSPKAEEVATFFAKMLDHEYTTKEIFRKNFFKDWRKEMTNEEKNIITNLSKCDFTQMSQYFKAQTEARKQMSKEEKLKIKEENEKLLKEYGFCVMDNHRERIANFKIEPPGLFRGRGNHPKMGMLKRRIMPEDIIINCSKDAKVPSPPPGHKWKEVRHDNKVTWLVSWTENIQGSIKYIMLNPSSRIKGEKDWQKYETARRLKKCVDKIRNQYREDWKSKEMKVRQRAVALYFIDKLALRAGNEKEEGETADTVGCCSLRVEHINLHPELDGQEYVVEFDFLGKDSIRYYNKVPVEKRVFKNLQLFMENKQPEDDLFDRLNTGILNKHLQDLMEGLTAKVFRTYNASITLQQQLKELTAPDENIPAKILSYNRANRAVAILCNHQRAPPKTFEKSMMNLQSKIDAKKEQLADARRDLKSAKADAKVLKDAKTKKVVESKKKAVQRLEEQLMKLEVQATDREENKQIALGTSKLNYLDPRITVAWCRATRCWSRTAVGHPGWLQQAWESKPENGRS
Excerpt: This assay performed according to the method described in Hsiang, Y. et al., J. Biol. Chem., 260:14873-14878 (1985), correlates well with in vivo anti-tumor activity of topoisomerase inhibitors in animal models of cancer, e.g., camptothecin and its analogs. See Hsiang et al., Cancer Research, 49:4385-4389 (1989) and Jaxel et al., Cancer Research, 49:1465-1469 (1989).
The term "IC50 " means the concentration of a compound of formula (I) at which 50% of the DNA substrate has been captured by topoisomerase I.

[1] = in words, background; cited from earlier work
[2] = Wani et al., J. Med. Chem. 29, 2358 (1986) and 30, 2317 (1987); cited from earlier work
HT-29 human colon tumor = assay: Human Colorectal Adenocarcinoma HT-29 Xenograft in vivo Assay; parameters: species or system human tumor xenograft in female NU/NU mice; conditions: for tumor wt day 50 / tumor wt day 14: s.c. twice a week for 5 weeks; for effect on tumor (stasis / regression): after 5 weeks of dosing, day 50 vs day 14, ratio 1 = stasis, <1 = regression
Procedure: Female NU/NU mice weighing 21±2 g, are used for this modified version of the test described by B. C. Giovanella, et al., Science, 246 1046 (1989). Control and test animals are injected subcutaneously in the sub-scapular region with a suspension of 10^6 viable HT-29 human colon tumor cells on day 0. Tumors are allowed to grow for 2 weeks prior to drug administration. For each drug, several doses are chosen based on its in vitro activity against topoisomerase I. Each dose level group contains 8 animals. The test compounds are prepared in either 0.1M acetate buffer, pH 5 (vehicle "a") or 87.5% phosphate buffered saline, 12.375% dimethylsulfoxide, and 0.125% Tween 80 (trademark of ICI America for polyoxyethylenesorbitan monooleate) (vehicle "b") and are administered subcutaneously twice a week for 5 weeks beginning on day 14. Doses are given on a mg/kg basis according to the mean body weight for each cage.
Tumor weight is calculated from two perpendicular caliper measurements of the tumor using the formula, tumor weight=length×width^2 […] in millimeters. For each animal, tumor weight is monitored over the course of the experiment. For each group, the results are expressed as the ratio of the mean tumor weight immediately after 5 weeks of treatment (day 50) divided by the mean tumor weight immediately before treatment (day 14). […] The criterion for antitumor activity is at least 50% inhibition of tumor growth after 5 weeks of dosing (day 50), giving a ratio of less than or equal to […].

leukemia (L-1210) = conditions: laboratory animals; cited from earlier work
certain solid tumors = conditions: laboratory animals; cited from earlier work
[3] = Cleavable Complex Assay, read-out: Relative IC50 (concentration at which 50% of the DNA substrate has been captured by topoisomerase I)

Structure (SMILES): CCC1(O)C(=O)OCc2c1cc1n(c2=O)Cc2c-1nc1cc3c(cc1c2CN(C)C)OCO3 (racemic) [Example 1]
IC50 (topoisomerase Type I; read-out: Relative IC50 (concentration at which 50% of the DNA substrate has been captured by topoisomerase I), Cleavable Complex Assay): < 500 nM

Structure (SMILES): CCC1(O)C(=O)OCc2c1cc1n(c2=O)Cc2c-1nc1cc3c(cc1c2CN1CCOCC1)OCCO3 (racemic) [Example 5, 7-Morpholinomethylene-10,11-ethylenedioxy-20(R,S)-camptothecin]
IC50 (topoisomerase Type I): < 500 nM

Structure (SMILES): CCC1(O)C(=O)OCc2c1cc1n(c2=O)Cc2c-1nc1cc3c(cc1c2CN1CCCC1)OCCO3 (racemic) [Example 7, 7-Pyrrolidinomethylene-10,11-ethylenedioxy-20(R,S)-camptothecin]
IC50 (topoisomerase Type I): 1000 to 2000 nM

Structure (SMILES): CCC1(O)C(=O)OCc2c1cc1n(c2=O)Cc2c-1nc1cc3c(cc1c2CN1CCCCC1)OCO3 (racemic) [Example 8, 7-Piperidinomethylene-10,11-methylenedioxy-20(R,S)-camptothecin]
IC50 (topoisomerase Type I): > 2000 nM

Structure (SMILES): CCC1(O)C(=O)OCc2c1cc1n(c2=O)Cc2c-1nc1cc3c(cc1c2CN1CCCCC1)OCCO3 (racemic) [Example 9, 7-Piperidinomethylene-10, 11-ethylenedioxy-20(R,S)-camptothecin]
IC50 (topoisomerase Type I): 500 to 1000 nM

IC50 (topoisomerase Type I; [3]): 500 to 1000 nM
Structure (SMILES): CCC1(O)C(=O)OCc2c1cc1n(c2=O)Cc2c-1nc1cc3c(cc1c2CN1CCN(C)CC1)OCCO3 (racemic) [Example 10, 7-(4-methylpiperazinomethylene)-10, 11-ethylenedioxy-20(R,S)-camptothecin]

Structure (SMILES): CCN(CC)Cc1c2c(nc3cc4c(cc13)OCCO4)-c1cc3c(c(=O)n1C2)COC(=O)C3(O)CC (racemic) [Example 13, 7-Diethylaminomethylene-10, 11-ethylenedioxy-20(R,S)-camptothecin]
IC50 (topoisomerase Type I): 500 to 1000 nM

Structure (SMILES): CCC1(O)C(=O)OCc2c1cc1n(c2=O)Cc2c-1nc1cc3c(cc1c2CN(C)CCO)OCO3 (racemic) [Example 15, 7-N-Methylethanolaminomethylene-10, 11-methylenedioxy-20(R,S)-camptothecin]
IC50 (topoisomerase Type I): 1000 to 2000 nM

Structure (SMILES): CCC1(O)C(=O)OCc2c1cc1n(c2=O)Cc2c-1nc1cc3c(cc1c2CN(C)CCO)OCCO3 (racemic) [Example 16, 7-N-Methylethanolaminomethylene-10, 11-ethylenedioxy-20(R,S)-camptothecin]
IC50 (topoisomerase Type I): 1000 to 2000 nM

Structure (SMILES): CCC1(O)C(=O)OCc2c1cc1n(c2=O)Cc2c-1nc1cc3c(cc1c2CN(CCO)CCO)OCCO3 (racemic) [Example 17, 7-Diethanolaminomethylene-10, 11-ethylenedioxy-20(R,S)-camptothecin]
IC50 (topoisomerase Type I): < 500 nM

Structure (SMILES): CCC1(O)C(=O)OCc2c1cc1n(c2=O)Cc2c-1nc1cc3c(cc1c2CN1CCC1)OCO3 (racemic) [Example 19, 7-Azetidinomethylene-10, 11-methylenedioxy-20(R,S)-camptothecin]
IC50 (topoisomerase Type I): 1000 to 2000 nM

Structure (SMILES): CCC1(O)C(=O)OCc2c1cc1n(c2=O)Cc2cc3cc4c(cc3nc2-1)OCO4 (centres unmarked) [10, 11-methylenedioxycamptothecin]
solubility in water / physiologically compatible, aqueous media [1]: as poor as camptothecin
potency relative to unsubstituted camptothecin [2]: more potent than unsubstituted camptothecin

Structure (SMILES): CC[C@@]1(O)C(=O)OCc2c1cc1n(c2=O)Cc2c-1nc1cc3c(cc1c2CN(C)C)OCO3 [Example 2, 7-Dimethylaminomethylene-10, 11-methylenedioxy-20(S)-camptothecin]
IC50 (topoisomerase Type I): < 500 nM
tumor wt day 50 / tumor wt day 14 (HT-29 human colon tumor; 0.8 mg/kg (optimal dose), vehicle b (PBS/DMSO/Tween 80), vehicle control 21.8): 1.8

Structure (SMILES): CC[C@@]1(O)C(=O)OCc2c1cc1n(c2=O)Cc2c-1nc1cc3c(cc1c2CN(C)C)OCCO3 [Example 4, 7-Dimethylaminomethylene-10, 11-ethylenedioxy-20(S)-camptothecin]
IC50 (topoisomerase Type I): 500 to 1000 nM
tumor wt day 50 / tumor wt day 14 (HT-29 human colon tumor; 7.0 mg/kg (optimal dose), vehicle a (0.1M acetate buffer, pH 5), vehicle control 20.0): 1.3
tumor wt day 50 / tumor wt day 14 (HT-29 human colon tumor; 7.0 mg/kg (optimal dose), vehicle b (PBS/DMSO/Tween 80), vehicle control 21.8): 1.0
effect on tumor (stasis / regression) (HT-29 human colon tumor): tumor stasis

Structure (SMILES): CC[C@@]1(O)C(=O)OCc2c1cc1n(c2=O)Cc2c-1nc1cc3c(cc1c2CN1CCOCC1)OCCO3 [Example 6, 7-Morpholinomethylene-10,11-ethylenedioxy-20(S)-camptothecin]
IC50 (topoisomerase Type I): < 500 nM
tumor wt day 50 / tumor wt day 14 (HT-29 human colon tumor; 1.0 mg/kg (optimal dose), vehicle b (PBS/DMSO/Tween 80), vehicle control 21.8): 1.0
effect on tumor (stasis / regression) (HT-29 human colon tumor): tumor stasis

IC50 (topoisomerase Type I; [3]): < 500 nM
Structure (SMILES): CC[C@@]1(O)C(=O)OCc2c1cc1n(c2=O)Cc2c-1nc1cc3c(cc1c2CN1CCN(C)CC1)OCCO3 [Example 11, 7-(4-methylpiperazinomethylene)-10, 11-ethylenedioxy-20(S)-camptothecin]
tumor wt day 50 / tumor wt day 14 (HT-29 human colon tumor; 9.0 mg/kg (optimal dose), vehicle a (0.1M acetate buffer, pH 5), vehicle control 20.0): 0.6
effect on tumor (stasis / regression) (HT-29 human colon tumor): tumor regression

Structure (SMILES): CCN(CC)Cc1c2c(nc3cc4c(cc13)OCCO4)-c1cc3c(c(=O)n1C2)COC(=O)[C@]3(O)CC [Example 14, 7-Diethylaminomethylene-10, 11-ethylenedioxy-20(S)-camptothecin]
tumor wt day 50 / tumor wt day 14 (HT-29 human colon tumor; 2.0 mg/kg (optimal dose), vehicle a (0.1M acetate buffer, pH 5), vehicle control 20.0): 2.0

Structure (SMILES): CC[C@@]1(O)C(=O)OCc2c1cc1n(c2=O)Cc2c-1nc1cc3c(cc1c2CN1CCC1)OCO3 [Example 20, 7-Azetidinomethylene-10, 11-methylenedioxy-20(S)-camptothecin]
tumor wt day 50 / tumor wt day 14 (HT-29 human colon tumor; 1.5 mg/kg (optimal dose), vehicle a (0.1M acetate buffer, pH 5), vehicle control 20.0): 1.5

Structure (SMILES): CC[C@@]1(O)C(=O)OCc2c1cc1n(c2=O)Cc2c-1nc1cc3c(cc1c2CN1CCC1)OCCO3 [Example 22, 7-Azetidinomethylene-10, 11-ethylenedioxy-20(S)-camptothecin]
tumor wt day 50 / tumor wt day 14 (HT-29 human colon tumor; 12.0 mg/kg (optimal dose), vehicle a (0.1M acetate buffer, pH 5), vehicle control 20.0): 1.6

Structure (SMILES): CC[C@@]1(O)C(=O)OCc2c1cc1n(c2=O)Cc2c-1nc1cc3c(cc1c2CN1CCN(C)CC1)OCO3 [Example 23, 7-(4-Methylpiperazinomethylene)-10, 11-methylenedioxy-20(S)-camptothecin]
tumor wt day 50 / tumor wt day 14 (HT-29 human colon tumor; 3.0 mg/kg (optimal dose), vehicle a (0.1M acetate buffer, pH 5), vehicle control 20.0): 0.5
effect on tumor (stasis / regression) (HT-29 human colon tumor): tumor regression

Structure (SMILES): CC[C@@]1(O)C(=O)OCc2c1cc1n(c2=O)Cc2cc3ccccc3nc2-1 [camptothecin, Camptothecin]
effectiveness in treatment of leukemia (L-1210) (leukemia (L-1210)): effective
effectiveness in treatment of certain solid tumors (certain solid tumors): effective
